According to US12655365B2, “Low foam cleaning compositions” (ECOLAB USA INC., priority 2020, dated 2026):

Assays:
E. coli (ATCC 11229) = experiment: Antimicrobial evaluation, log reduction of microbial population; type: cell-based; conditions: pH 7, 500 ppm hard water, 120° F., about 30 seconds contact
Experimental: The quaternary ammonium compounds were tested for antimicrobial efficacy against exemplary bacteria (E. coli and S. aureus) under different pH conditions. For this evaluation, various test solutions were prepared in 500 ppm hard water at a temperature of 120° F. The microbial population was contacted with the test composition for about 30 seconds. The microbial population was measured before and after the contacting step and the difference was taken to identify the log reduction. The quaternary ammonium compounds tested, their concentrations, and the corresponding log reductions are shown below in Table 2.

[1] = Foam evaluation (foam height); type: physicochemical; conditions: 1200 ppm solution in water; 120° F.; additive with quaternary ammonium compound
Experimental: The foaming properties of the quaternary ammonium compounds were evaluated and then tested for reduced foaming when traditional defoaming compounds were included. The foam height was determined with the following procedural steps: • 1. A 1200 ppm solution of the test composition was mixed in water. • 2. The foam height was measured immediately after mixing. • 3. The solution was agitated and the foam height was measured after 15 seconds. • 4. The solution was agitated and the solution was measured after another 45 seconds of agitation (60 seconds total since the solution was mixed). The temperature of the solution was at 120° F. for the duration of the test. As can been seen in FIGS. 1A and 1B, the various quaternary ammonium compounds tested provided significant foam height after mixing at after 15 seconds of agitation. The traditional defoamers had varying impacts on the foaming properties of the quaternary ammonium compounds.
The ability of the polycarboxylic acids and/or salts to control the foam of different quaternary ammonium compounds was also tested. The same procedural steps outlined above were followed. […].

Structure (SMILES)	log reduction (E. coli (ATCC 11229); 30 ppm)	log reduction (E. coli (ATCC 11229); 40 ppm)	log reduction (E. coli (ATCC 11229); 50 ppm)	reduction to the foaming of quaternary ammonium compounds [1]
CCCCCCCCCC[N+](C)(C)CCCCCCCCCC.[Cl-] [Bardac 2250, didecyl dimethyl ammonium chloride]	3.33	5.02	6.71	
CC(=O)O [acetate]				did not
O=C([O-])c1ccccc1.[Na+] [sodium benzoate]				did not
O=S(=O)([O-])[O-].[Na+].[Na+] [sodium sulfate]				did not
